No end group written: not given here.
Columns and labels:
[1] = test system: free fat cells (adipocytes); test: Adipocyte / free fat cell (FFC) assay, 3H glucose incorporation into lipid; conditions: FFC assay potency grade; 0, + to ++++++, −
Description: Incorporation of ^3H into the lipid phase was determined by partitioning of lipid phase into a scintillant mixture, which excludes water-soluble ^3H products.

IR = IR (Homo sapiens, UniProt P06213); test: Phage ELISA, binding of phage clones to IR (ratio over background); conditions: ratio of IR divided by ratio of IGF-1R
Description: (§1) HIT indicates binder; CAND indicates binder candidate; LDH indicates binding to lactate dehydrogenase (negative control); Sp/Irr indicates the ratio of specific binding over non-specific binding.
(§2) Sp/Irr=the ratio of specific binding over non-specific binding; LDH=lactate dehydrogenase (negative control).
(§3) For phage pools, cells from frozen stocks were grown and phage were prepared as described above. For analysis of individual clones, colonies were picked and phage prepared as described above. Subsequent steps were the same for pooled and clonal phage. Microtiter wells were coated and blocked as described above. […] Phage resuspended in MPBS (PBS containing 2% non-fat milk) were added to wells (100 μl/well) and incubated at room temperature for 1 h. The phage solution was then removed, and the wells were washed three times with PBS at room temperature.
(§4) Anti-M13 antibody conjugated to horseradish peroxidase (Pharmacia Biotech) was diluted 1:3000 in MPBS and added to each well (100 μl/well). Incubation was for another hour at room temperature, followed by PBS washes as described. Color was developed by addition of ABTS solution (100 μl/well; Boehringer). […] Data points were averaged after subtraction of appropriate blanks. A clone was considered “positive” if the A405 of the well was ≧2-fold over background.

IGF-1R = IGF-1R (Homo sapiens, UniProt P08069); test: Phage ELISA, binding of phage clones to IGF-1R (ratio over background); conditions: ratio of IGF-1R divided by ratio of IR
Description: as §1, §2, §3, §4

Compound	FFC [1]	Comparisons IR/IGF-1R (IR)	Comparisons IGF-1R/IR (IGF-1R)
CC(C)[C@H](NC(=O)[C@H](Cc1ccccc1)NC(=O)[C@H](Cc1c[nH]c2ccccc12)NC(=O)[C@H](CC(=O)O)NC(=O)[C@H](Cc1ccc(O)cc1)NC(=O)[C@H](Cc1ccccc1)NC(=O)[C@H](CC(N)=O)NC(=O)[C@H](CCC(=O)O)NC(=O)[C@H](Cc1c[nH]cn1)NC(=O)[C@@H](N)Cc1ccccc1)C(=O)N[C@@H](CCCNC(=N)N)C(=O)N[C@@H](CCC(N)=O)C(=O)N[C@H](C(=O)N[C@@H](CO)C(=O)N[C@@H](CCCCN)C(=O)N[C@@H](CCCCN)C(=O)NC[C@H](NC(=O)[C@H](CCCCN)NC(=O)[C@H](CCCCN)NC(=O)[C@H](CO)NC(=O)[C@@H](NC(=O)[C@H](CCC(N)=O)NC(=O)[C@H](CCCNC(=N)N)NC(=O)[C@@H](NC(=O)[C@H](Cc1ccccc1)NC(=O)[C@H](Cc1c[nH]c2ccccc12)NC(=O)[C@H](CC(=O)O)NC(=O)[C@H](Cc1ccc(O)cc1)NC(=O)[C@H](Cc1ccccc1)NC(=O)[C@H](CC(N)=O)NC(=O)[C@H](CCC(=O)O)NC(=O)[C@H](Cc1c[nH]cn1)NC(=O)[C@@H](N)Cc1ccccc1)C(C)C)C(C)C)C(=O)O)C(C)C [Peptide S128]	++	–	–
MMVVDGFYDALHQLVVAQSLG [20E2A-3-D10-IGFR]	–	0.3	3.9
MNVFVSFYDAIDQLVCQRIGC [20E2A-4-G11-IGFR]	–	0.4	2.6
NSRDGGFYLQLERLLGFPVTG [20E2B-3-D4-IGFR]	–	0.1	9.6
NYRRQVFNGNFYDWFDRQVFSLVTPG [H2CA-3-D8-IGFR]	–	0.3	4.0
PAGPCGFYCGLGLLLHGDQSP [20E2B-4-H8-IGFR]	–	0.2	5.9
PDLHKGFYAQLAQLIRGQLLS [20E2B-3-E3-IGFR]	–	0.1	13.1
PGTDLGFYQALRCVVIQGACD [20E2B-2-B2-IGFR]	–	0.1	8.1
PPLASDLDVQFYGWFVQQVSPPGRGG [H2CA-2-B3-IGFR]	–	0.3	3.6
PVGVQGFYEGLSRLVLGRGGW [20E2B-4-F8-IGFR]	–	0.1	9.7
QAVQPGFHEEFYDWFVRQVSTGVGGG [H2CA-4-H4-IGFR]	–	0.2	4.2
QFYGCLLDLSLGVPSFGWRRRCITA [20C-3-A4-IGFR]	–	0.1	7.6
QGGSASFYDAIDRLLRMRIGG [20E2A-4-F11-IGFR]	–	0.1	14.6
QGNVLDFYGWIGRLLAKQGSD [20E2B-3-D12-IGFR]	–	0.1	7.3
QPAPDGFYSALMKLIGRGGVS [20E2B-3-C8-IGFR]	–	0.1	8.9
QPDHSYFYSLLQELVGSEERL [20E2B-4-F9-IGFR]	–	0.1	7.7
QSGSGDFYDWLSRLIRGNGDG [20E2Bβ-3-C7-IR]	–	0.5	2.0
QSPVGSSHEDFYDWFFRQVAQSGAHQ [H2CA-3-D6-IGFR]	–	0.3	4.0
RAGSSDFHEDFYEWFVRQVSLSLKGK [H2CA-2-B9-IGFR]	–	0.2	4.2

Compound	FFC [1]	Comparisons IR/IGF-1R (IR)	Comparisons IGF-1R/IR (IGF-1R)
RCEEKQAEVGPSSDPFYHKMSELLGCR [Peptide B6Hα-3-E9-IR]	–	0.1	14.2
RCGDEEGWQENRRDDPFYHKLSELFGGC [Peptide B6Hα-3-E5-IR]	–	0.3	2.9
RCGRELYHSTFYDWFDRQVAGRTCPS [H2CA-1-A7-IGFR]	–	0.3	3.7
RCGRW*AEMGAGDDPFYHKLSELVCG (RCGRWXAEMGAGDDPFYHKLSELVCG; not fully specified; X: residue not identified in the source; cysteine pairing not given here) [Peptide B6Hα-2-C4-IR]	–	0.1	11.0
RCQGTGFYTCIQELIGFGDPD [20E2B-4-H9-IGFR]	–	0.2	5.6
RFDPFYSYFVNLLGASA [NNRPγ-4-A7-IR]	–	0.2	4.9
RFSTDGFYQYLLALVGGGPVG [20E2B-1-A11-IGFR]	–	0.1	9.7
RGAVAGFHDQFYDWFDRQVSRVHKFG [H2CA-4-H9-IGFR]	–	0.3	3.0
RGIVAMVEATEVGSDHPFYHKLSELVQGS [Peptide B6Hα-2-C7-IR]	–	0.1	6.7
RGKTAAVIVGRPADPFYHKLSELLQGG [Peptide B6Hα-3-E8-IR]	–	0.2	4.8
RGMKEEVLVGGSTDPFYHKLSELLQGS [B6Hα-3-F11-IR]	–	0.1	11.7
RGQSDAFYSGLWALIGLSDG [Peptide R20β-4-A6-IR]	–	0.1	17.3
RLFYCGIQALGANLGYSGCV [R20α-4-20A12-IR]	–	0.1	16.6
RQGTGSFYLMLEQLLVGARGP [20E2B-4-G11-IGFR]	–	0.1	7.0
SACQFDCHENFYDWFARQVSGGAAYG [H2CA-4-H8-IGFR]	–	0.1	9.4
SGAKVIVVTGDSGDPFYHKLSELLQGS [B6Hα-2-C10-IR]	–	0.2	5.3
SQAGSAFYAWFDQVLRTVHSA [20E2Bβ-4-G6-IR]	–	0.3	3.3
SRAKVEAEMPDSGDPFYHKLSELLASG [Peptide B6Hα-1-A3-IR]	–	0.3	3.3
SRVAATKEKRPSDDPFYHKLSELLQGS [Peptide B6Hα-3-F7-IR]	–	0.3	3.1

Compound	FFC [1]	Comparisons IR/IGF-1R (IR)	Comparisons IGF-1R/IR (IGF-1R)
SSCDGAGHESFYEWFVRQVSGCRSV [H2CA-3-C8-IGFR]	–	0.2	4.8
SSETAKMVTGTRDDPFYHKLSELVQGS [Peptide B6Hα-D8-IR]	–	0.3	3.0
SSIGGGEHENFYDWFSRQLSQSPPLK [H2CA-4-F7-IGFR]	–	0.2	4.1
SSYGCDGFYLMLFSLGLVASQELEC [20C-3-A1-IGFR]	–	0.1	13.7
TFYSCLASLLTGTPQPNRGPWERCR [20C-3-G3-IGFR]	–	<0.1	27.0
TLDGGSFEEQFYDWFVRQLSYRTNPD [H2CA-4-G11-IGFR]	–	0.3	3.9
TLRSPTFYDWLEMVLTHGQGG [20E2B-1-A8-IGFR]	–	0.2	5.0
TSEVQRRSQDNFYDWFVAQVA [Peptide A6S-3-E2-IR]	–	0.4	2.5
VATSQGFYSGLSELLQGGGNV [20E2B-3-E12-IGFR]	–	0.1	7.3
VDTPAQVGWNRLWSVGPGEHWYTDDPFYH*LSELLRESGA [Peptide B6L-3-G6-IR]	–	0.7	1.4
VERSASSQDGNFYDWFVVQIR [Peptide A6S-2-D1-IR]	–	0.4	2.6
VGYQGQGDENFYDWFIRQVSGRLGVQ [H2CA-4-F5-IGFR]	–	0.1	12.3
VNQSGSIHENFYDWFERQVSHQRGVR [H2CA-4-F10-IGFR]	–	0.2	5.9
VVTPVNFYRALEALVRG.RLG (VVTPVNFYRALEALVRGXRLG; not fully specified; printed as VVTPVNFYRALEALVRG.RLG; X: residue not identified in the source; ends and bridges not checked) [20E2B-2-B11-IGFR]	–	0.1	9.4
W.GYAWLS [40F-4-D10-IGFR]	–	0.1	11.7
YRGMLVLGRISDGAG#VASEPPARIGRKVFAVNFYDWFV [Peptide A6L-0-E4-IR]	–	0.1	13.0
YRGMLVLGRISGGAGKAASERPARIGQKVSAVNFYDWFV [Peptide A6L-0-H3-IR]	–	0.1	13.0
YRGMLVLGRSSDGAGKVAFERPARIGQTVFAVNFYDWFV [Peptide A6L-0-E6-IR]	–	0.1	17.0
YSCGDGFYSLLSDLLGGQFRC [20E2B-4-H12-IGFR]	–	0.1	12.8
